The results in this text go back to patent US20230035690A1, “MACHINE LEARNING TOOLS AND A PROCESS TO DISCOVER NEW NATURAL PRODUCTS BY LINKING GENOMES AND M[…] FUNGI” (Northwestern University, priority 2019, published 2023).

The structures appear in SMILES notation.

The test system of the assay is A. fumigatus IDO mutants. The assay is described as follows: growth inhibition test against A. fumigatus IDO mutants. In kind it is cell-based. Conditions: tested against A. fumigatus IDO mutants. The text has this:
In addition to re-purposing duplicated primary metabolism genes to have a biosynthetic role, fungi also utilize duplicated genes from primary metabolism as a form of self-resistance (Refs. A34, A35; incorporated by reference in their entireties). This Type II repurposing represents a particularly attractive avenue for drug discovery, as the duplicated gene will often provide insight into the mechanism of action of the encoded secondary metabolite. Several examples of such Type II repurposing have been discovered by targeting clusters with duplicate resistance targets. The proteasome inhibitor fellutamide B, for example, was discovered due to the presence of a duplicated proteasome subunit within its BGC (36). Similarly, the BGC encoding the methionine aminopeptidase inhibitor fumagillin contains both type I and type II methionine aminopeptidase genes in the gene cluster (FIG. 10) (Ref. A37; incorporated by reference in its entirety). While it is likely that many of the IDOs contained within the BGCs depicted in FIGS. 8 and 9 represent Type I biosynthetic enzymes that provide kynurenine for secondary metabolite synthesis, it is also possible that they represent Type II duplicated gene targets that serve to protect the producing organism against the biosynthetic product. […]

For the compound `Nc1ccccc1C(=O)NC1CC(=O)c2ccccc2NC1=O` (stereo not shown) [terreazepine, 2-amino-N-(2,3,4,5-tetrahydro-2,5-dioxo-1H-1-benzazepin-3-yl)benzamide], the growth inhibitory activity entry was “no growth inhibitory activity was observed”.
